Measurements taken from patent publication US10273230B2, “Substituted phenyl alkanoic acid compounds as GPR120 agonists and uses thereof” (Piramal Enterprises Limited, priority 2014, dated 2019).

The molecules below were run against GPR120 receptor (Homo sapiens (Human), UniProt Q5NUL3) (assay: Beta (β) arrestin 2 Interaction Assay (BRET assay), β-galactosidase enzyme fragment complementation). Details: CHO-K1 cells stably expressing the GPR120 receptor; β-arrestin recruitment; 2 hours incubation; 30 μM to 1 nM.
Sequence of GPR120 receptor (Q5NUL3 whole entry, the tested form may be a part): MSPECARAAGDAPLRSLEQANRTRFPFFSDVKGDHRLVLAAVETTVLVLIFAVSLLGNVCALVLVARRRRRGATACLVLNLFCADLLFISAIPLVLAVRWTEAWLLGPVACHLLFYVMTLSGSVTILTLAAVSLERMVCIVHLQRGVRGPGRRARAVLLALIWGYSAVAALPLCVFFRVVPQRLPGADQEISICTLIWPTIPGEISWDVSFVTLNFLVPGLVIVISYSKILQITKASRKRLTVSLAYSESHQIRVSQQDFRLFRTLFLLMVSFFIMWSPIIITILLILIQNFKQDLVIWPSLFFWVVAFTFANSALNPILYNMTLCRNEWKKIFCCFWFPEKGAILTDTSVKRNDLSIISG
Sequence of GPR120 receptor (P32121 whole entry partner, the tested form may be a part): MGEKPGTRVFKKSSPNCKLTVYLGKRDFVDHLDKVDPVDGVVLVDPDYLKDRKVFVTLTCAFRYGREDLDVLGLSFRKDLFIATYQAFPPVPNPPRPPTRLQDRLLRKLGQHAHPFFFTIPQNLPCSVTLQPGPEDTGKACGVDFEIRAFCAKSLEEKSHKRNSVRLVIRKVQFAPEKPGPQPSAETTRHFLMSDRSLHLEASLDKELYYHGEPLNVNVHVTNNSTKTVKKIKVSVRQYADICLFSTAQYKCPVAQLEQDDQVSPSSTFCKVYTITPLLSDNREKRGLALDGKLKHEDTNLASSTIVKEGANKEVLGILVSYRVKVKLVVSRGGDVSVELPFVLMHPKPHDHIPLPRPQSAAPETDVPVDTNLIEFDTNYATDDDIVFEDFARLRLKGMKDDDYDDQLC
Assay type: cell-based
Method: Beta (β) arrestin 2 Interaction Assay (BRET assay) was performed using CHO-K1 cells stably expressing the GPR120 receptor using β-galactosidase (Beta gal) enzyme fragment complementation assay. The measurement of GPR120 activation upon agonist activation was directly provided by β-arrestin recruitment. One day before the β-arrestin 2 assay, CHO-K1 cells were seeded and incubated overnight at 37° C. in a 5% CO2 humidified atmosphere. Cells were treated with the test compounds in the various concentrations ranging from 30 μM to 1 nM and incubated for 2 hours for GPCR (GPR120) activation. Extent of Arrestin recruitment was measured by adding detection reagents for Beta gal complementation assay and was further incubated for 1 hour. The chemi-luminescent signal was detected on Polar Star (BMG Labtech). The dose-response curve was analyzed using Sigma Plot/Graph Pad. The EC50 (concentration of the test compounds where 50% of compounds' maximal activity is observed) values were calculated from the dose-response curve.

Structure (SMILES) | EC50 [nM]
N#CC1(c2ccc(C3=C(COc4ccc(CCCC(=O)O)cc4)CCCC3)cc2)CC1 [Example 1, 4-(4-((4′-(1-cyanocyclopropyl)-3,4,5,6-tetrahydro-[1,1′-biphenyl]-2-yl)methoxy)phenyl) butanoic Acid] | 500 to 5000
O=C(O)CCCc1ccc(OCC2=C(c3nc4c(s3)CCCC4)CCCC2)cc1 [Example 4, 4-(4-((2-(4,5,6,7-tetrahydrobenzo[d]thiazol-2-yl)cyclohex-1-en-1-yl)methoxy)phenyl) butanoic Acid] | 500 to 5000
COc1ccc(C2=C(COc3ccc(CCCC(=O)O)cc3)CCCC2)cc1 [Example 6, 4-(4-((4′-methoxy-3,4,5,6-tetrahydro-[1,1′-biphenyl]-2-yl)methoxy)phenyl)butanoic Acid] | 500 to 5000
O=C(O)CCCc1ccc(OCC2=C(c3ccc(C4CC4)cc3)CCCC2)cc1 [Example 7, 4-(4-((4′-cyclopropyl-3,4,5,6-tetrahydro-[1,1′-biphenyl]-2-yl)methoxy)phenyl)butanoic Acid] | 50 to 500
Nc1ncc(C2=C(COc3ccc(CCCC(=O)O)cc3)CCCC2)cc1C(F)(F)F [Example 8, 4-(4-((2-(6-amino-5-(trifluoromethyl)pyridin-3-yl)cyclohex-1-en-1-yl)methoxy)phenyl)butanoic Acid] | 500 to 5000
O=C(O)CCCc1ccc(OCC2=C(c3ccc4c(c3)CCCC4)CCCC2)cc1 [Example 9, 4-(4-((2-(5,6,7,8-tetrahydronaphthalen-2-yl)cyclohex-1-en-1-yl)methoxy)phenyl) butanoic Acid] | 50 to 500
O=C(O)CCCc1ccc(OCC2=C(C3=CCCCC3)CCCC2)cc1 [Example 10, 4-(4-([1,1′-bi(cyclohexane)]-1,1′-dien-2-ylmethoxy)phenyl) butanoic Acid] | 500 to 5000
COc1ccc(C2=C(COc3ccc(CCCC(=O)O)cc3)CCCC2)cn1 [Example 14, 4-(4-((2-(6-methoxypyridin-3-yl)cyclohex-1-en-1-yl)methoxy)phenyl) butanoic Acid] | 500 to 5000
Cc1ccc(C2=C(COc3ccc(CCCC(=O)O)cc3)CCCC2)cc1 [Example 15, 4-(4-((4′-methyl-3,4,5,6-tetrahydro-[1,1′-biphenyl]-2-yl)methoxy)phenyl) butanoic Acid] | 50 to 500
N#CC1(c2ccc(C3=C(COc4ccc(CCCC(=O)O)cc4)CCCCC3)cc2)CC1 [Example 21, 4-(4-((2-(4-(1-cyanocyclopropyl)phenyl)cyclohept-1-en-1-yl)methoxy)phenyl) butanoic Acid] | 500 to 5000
Cc1ccc(C2=C(COc3ccc(CCCC(=O)O)cc3)CCCCC2)cc1 [Example 22, 4-(4-((2-(p-tolyl)cyclohept-1-en-1-yl)methoxy)phenyl)butanoic Acid] | 50 to 500
N#CC1(c2ccc(C3=C(COc4ccc(CCCC(=O)O)cc4)COCC3)cc2)CC1 [Example 48, 4-(4-((4-(4-(1-cyanocyclopropyl)phenyl)-5,6-dihydro-2H-pyran-3-yl)methoxy)phenyl) butanoic Acid] | 500 to 5000
O=C(O)CCCc1ccc(OCC2=C(c3ccc4c(c3)CCCC4)CCOC2)cc1 [Example 49, 4-(4-((4-(5,6,7,8-tetrahydronaphthalen-2-yl)-5,6-dihydro-2H-pyran-3-yl)methoxy)phenyl) butanoic Acid] | 500 to 5000
Cc1ccc(OC2=C(COc3ccc(CCCC(=O)O)cc3)CCCC2)cc1 [Example 50, 4-(4-((2-(p-tolyloxy)cyclohex-1-en-1-yl)methoxy)phenyl)butanoic Acid] | 500 to 5000
CC1CCC(c2ccc(C3(C#N)CC3)cc2)=C(COc2ccc(CCCC(=O)O)cc2)C1 (stereo not shown) [Example 53, 4-(4-((4′-(1-cyanocyclopropyl)-4-methyl-3,4,5,6-tetrahydro-[1,1′-biphenyl]-2-yl)methoxy)phenyl)butanoic Acid] | 500 to 5000
Cc1ccc(C2=C(COc3ccc(CCCC(=O)O)cc3)CC(F)CC2)cc1 (stereo not shown) [Example 54, 4-(4-((4-fluoro-4′-methyl-3,4,5,6-tetrahydro-[1,1′-biphenyl]-2-yl)methoxy)phenyl) butanoic Acid] | 500 to 5000
